According to patent publication US6702996B1, “Method for investigating the suitability of a material as a medicament” (Aventis Pharma Deutschland GmbH, priority 1999, dated 2004):

System: C. elegans
Assay: Retraction reflex of nematodes to a local thermal stimulus (laser, head region)
Format: in vivo, Caenorhabditis elegans
Conditions: for effect on the reflex behaviour of the nematode: nematodes exposed to the substance, local thermal stimulus
Protocol: The inventors' experiments have thus shown that the use of C. elegans as an animal model for studying materials in terms of their suitability as medicaments in humans or other mammals allows reliable predictions to be made, especially where the sensation or perception of pain is involved, both in terms of algesic or hyperalgesic effects and in terms of analgesic effects. […] A normal reflex to a thermal stimulus of e.g. 32-40° C. in the head region of the nematode can be described as follows:
I) Rapid reflexive retraction by at least one whole body length and subsequent orientation of the head in another direction.
II) Rapid reflexive retraction, but without backward motion.
The well-fed test animals (C. elegans) (about 100; length about 1.3 mm; diameter 80 μm) were irradiated in the experiments with an infrared laser (685±0.5 nm). The laser beam was always focused on a spot of diameter 30 μm in the head region of the animal, a local warming to 33.5±1° C. being observed on an agar surface. To examine the animals' behaviour in greater detail, they were exposed to a nociceptive stimulus, after which they were incubated in capsaicin at concentrations varying from 1 to 100 μM. A strong reaction was still being observed 1 h after incubation.

SMILES | reaction (intensified reflex as in I)) in mutants (C. elegans mutants whose normal behaviour is that only 70% of the animals react as in I)) | animals exhibiting a reflex as in I) (rapid reflexive retraction by at least one whole body length) (incubated in capsaicin 1 to 100 μM, 1 h after incubation, laser warming to 33.5±1° C. in head region, control group 80%) | effect on the reflex behaviour of the nematode
COc1cc(CNC(=O)CCCC/C=C/C(C)C)ccc1O [capsaicin] | observed even more clearly | over 90% | can be influenced
Oc1cc2c(cc1O)CN(C(=S)NCCc1ccc(Cl)cc1)CCC2 [capzazepine] |  |  | can be influenced
